Measured values as given in paper PMC8570591 (ACS catalysis, 2021).

Molecular target: T1, EanB (Chlorobium limicola, UniProt B3ECE3)
T1 sequence (B3ECE3 1-457): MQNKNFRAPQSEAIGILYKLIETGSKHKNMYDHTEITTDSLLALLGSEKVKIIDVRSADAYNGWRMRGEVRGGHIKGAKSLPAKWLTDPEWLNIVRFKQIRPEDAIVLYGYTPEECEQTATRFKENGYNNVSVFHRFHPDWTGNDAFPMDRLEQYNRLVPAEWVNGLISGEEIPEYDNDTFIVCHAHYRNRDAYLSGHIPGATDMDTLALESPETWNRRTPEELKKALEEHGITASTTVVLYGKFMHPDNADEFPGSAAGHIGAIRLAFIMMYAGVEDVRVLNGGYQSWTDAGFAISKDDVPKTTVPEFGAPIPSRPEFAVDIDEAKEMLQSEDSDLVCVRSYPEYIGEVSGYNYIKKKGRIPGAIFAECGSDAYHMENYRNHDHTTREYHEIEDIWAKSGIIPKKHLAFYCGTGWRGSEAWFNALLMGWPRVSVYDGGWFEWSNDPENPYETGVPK
Experiment: hercynine epsilon-C-H/D2O exchange kinetics by LC-MS, purified enzyme
Type: biochemical

C[N+](C)(C)[C@@H](Cc1cnc[nH]1)C(=O)[O-] [compound 2, hercynine]
Kd: 161 ± 18.6 µM
